{"source": "patent US20150064107A1", "about": "“IMAGING AGENT” (King's College London, priority 2013, published 2015)", "key": {"[1]": {"test": "Ex vivo fluorescent imaging of excised popliteal lymph nodes under 980 nm laser", "type": "in vivo, mouse (C57BL/6)", "settings": "multi-photon laser scanning microscope", "experimental": "To further explore the potential value of these NPIAs, a more detailed lymph node study by PET/MRI imaging was undertaken, investigating the popliteal LN in response to an acute inflammatory stimulus in the foot. A solution of ^18F-labelled Fe3O4@NaYF4(Yb, Tm)-BP-PEG (20 μL, 4.5 MBq, 20 μg Fe) was injected into each of the two rear footpads of a female C57BL/6 mouse in which only the right leg was inflamed. […] A control experiment was carried out with [^18F]-fluoride but without NPs Fe3O4@NaYF4(Yb, Tm)-BP-PEG, under the same conditions. […] By MRI scanning prior to injection of the labellend NPs, no contrast difference was seen on MR images between the normal LN and the inflamed one. The popliteal lymph nodes on the inflamed side were dissected and viewed, together with the adjacent fatty tissue, with a Femtonics (Budapest, Hungary) Fem2D in vivo multi-photon laser scanning microscope under excitation of a 980 nm laser. […] Fluorescent NPIAs were also found inside cells of adjacent fat tissue of the inflamed popliteal LN."}, "[2]": {"test": "In vivo PET/MRI imaging of the lymph node system after footpad injection", "set-up": "species or system mouse (C57BL/6)", "settings": "mouse, 6 hours post injection", "experimental": "In vivo PET/MRI imaging of the lymph node (LN) system was carried out using a preclinical nanoScan® PET•MRI scanner with 1 T magnetic field (Mediso Ltd, H-1047, Budapest, Hungary), utilising ^18F-labelled CoxFe3-xO4@NaYF4(Yb, Er)-BP-PEG (10 K) or ^18F-labelled Fe3O4@NaYF4(Yb, Tm)-BP-PEG (2 K) NPIAs as probes. After injection of 20 μL of [^18F]-fluoride-labelled CoxFe3-xO4@NaYF4(Yb, Er)-BP-PEG solution containing 6.3 MBq radioactivity and 20 μg Fe into the rear right foot pad of a mouse (C57BL/6, female, 6-7 weeks old, 20 g), coregistered PET and MRI images were recorded 6 hours post injection. The most prominent signal was from the popliteal LN, which is the nearest draining LN from the injection point, and the next most prominent signal was from the medial iliac LN (FIG. 5a, 5c & 5d).\nTo further explore the potential value of these NPIAs, a more detailed lymph node study by PET/MRI imaging was undertaken, investigating the popliteal LN in response to an acute inflammatory stimulus in the foot. A solution of ^18F-labelled Fe3O4@NaYF4(Yb, Tm)-BP-PEG (20 μL, 4.5 MBq, 20 μg Fe) was injected into each of the two rear footpads of a female C57BL/6 mouse in which only the right leg was inflamed. […] A control experiment was carried out with [^18F]-fluoride but without NPs Fe3O4@NaYF4(Yb, Tm)-BP-PEG, under the same conditions. […]"}}, "note": "Entries after “also recorded” stand apart in the source; their conditions may differ.", "data": [{"substance": "[^18F]-fluoride", "values": [{"measurement": "fluorescence of excised inflamed popliteal lymph node", "setting": "[1]", "value": "faint granular fluorescence"}, {"measurement": "lymph node signal on PET (and MRI) images", "setting": "[2]", "value": "no contrast in lymph nodes; also recorded: did not show any signal at the lymph nodes"}]}]}
